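Dose response: 5 concentrations. Exposure: 48 h. Format: 96-well plates. Endpoint: linear interpolation; highest concentration if not reached. GI50: concentration for 50% inhibition of growth.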 Calls of active or inactive are those of the source. No stated cut-off is given here; in the data, active = GI50 up to about 1.1 µM and inactive = higher.
Legend:
Test in all cases: NCI tumour cell line growth inhibition, 48 h
[1] = system: M14
[2] = system: NCI/ADR-RES
[3] = system: COLO 205
[4] = system: SK-MEL-5
[5] = system: A498
[6] = system: CCRF-CEM
[7] = system: PC-3
[8] = system: IGROV-1
[9] = system: MOLT-4
[10] = system: Hs-578T
[11] = system: DU-145
[12] = system: T47D
[13] = system: TK-10
[14] = system: HCT-15
[15] = system: OVCAR-5
[16] = system: UACC-62
[17] = system: MDA-MB-231
[18] = system: NCI-H226
[19] = system: U-251
[20] = system: UO-31
[21] = system: SK-OV-3
[22] = system: SF-268
[23] = system: MCF7
[24] = system: SN12C
[25] = system: HCT-116
[26] = system: RPMI-8226
[27] = system: SR
[28] = system: SNB-75
[29] = system: SF-539
[30] = system: ACHN
[31] = system: OVCAR-8
[32] = system: MDA-MB-435
[33] = system: HCC 2998
[34] = system: SNB-19
[35] = system: HOP-92
[36] = system: MDA-N
[37] = system: NCI-H460
[38] = system: SW-620
[39] = system: 786-0
[40] = system: EKVX
[41] = system: NCI-H23
[42] = system: HOP-62
[43] = system: HL-60
[44] = system: SK-MEL-28
[45] = system: LOX IMVI
[46] = system: A549
[47] = system: K562
[48] = system: SK-MEL-2
[49] = system: UACC-257
[50] = system: OVCAR-3
[51] = system: Malme-3M
[52] = system: HT-29
[53] = system: SF-295
[54] = system: NCI-H522
[55] = system: KM12
[56] = system: OVCAR-4

COC(=NC(C)C)NC(C)C
GI50 [1]: > 100 µM (inactive) | GI50 [2]: > 100 µM (inactive) | GI50 [3]: > 100 µM (inactive) | GI50 [4]: > 100 µM (inactive) | GI50 [5]: > 100 µM (inactive) | GI50 [6]: > 100 µM (inactive) | GI50 [7]: > 100 µM (inactive) | GI50 [8]: > 100 µM (inactive) | GI50 [9]: > 100 µM (inactive) | GI50 [10]: > 100 µM (inactive) | GI50 [11]: > 100 µM (inactive) | GI50 [12]: > 100 µM (inactive) | GI50 [13]: > 100 µM (inactive) | GI50 [14]: > 100 µM | GI50 [15]: > 100 µM (inactive) | GI50 [16]: > 100 µM (inactive) | GI50 [17]: > 100 µM (inactive) | GI50 [18]: > 100 µM (inactive) | GI50 [19]: > 100 µM (inactive) | GI50 [20]: > 100 µM (inactive) | GI50 [21]: > 100 µM (inactive) | GI50 [22]: > 100 µM (inactive) | GI50 [23]: > 100 µM (inactive) | GI50 [24]: > 100 µM (inactive) | GI50 [25]: > 100 µM (inactive) | GI50 [26]: > 100 µM (inactive) | GI50 [27]: 77.3 µM (inactive) | GI50 [28]: > 100 µM (inactive) | GI50 [29]: > 100 µM (inactive) | GI50 [30]: > 100 µM (inactive) | GI50 [31]: > 100 µM (inactive) | GI50 [32]: > 100 µM (inactive) | GI50 [33]: > 100 µM (inactive) | GI50 [34]: > 100 µM (inactive) | GI50 [35]: > 100 µM (inactive) | GI50 [36]: > 100 µM (inactive) | GI50 [37]: > 100 µM (inactive) | GI50 [38]: > 100 µM (inactive) | GI50 [39]: > 100 µM (inactive) | GI50 [40]: > 100 µM (inactive) | GI50 [41]: > 100 µM (inactive) | GI50 [42]: > 100 µM (inactive) | GI50 [43]: > 100 µM (inactive) | GI50 [44]: > 100 µM (inactive) | GI50 [45]: > 100 µM (inactive) | GI50 [46]: > 100 µM (inactive) | GI50 [47]: > 100 µM (inactive) | GI50 [48]: > 100 µM (inactive)

C/C(=C\c1ccc(Cl)c(Cl)c1)[N+](=O)[O-]
GI50 [1]: 0.738 µM (active) | GI50 [2]: 3.41 µM (inactive) | GI50 [4]: 2.04 µM (inactive) | GI50 [5]: 4.4 µM (inactive) | GI50 [8]: 2.16 µM (inactive) | GI50 [49]: 1.3 µM (inactive) | GI50 [9]: 0.398 µM (active) | GI50 [10]: 3.24 µM (inactive) | GI50 [50]: 1.65 µM (inactive) | GI50 [11]: 1.63 µM (inactive) | GI50 [13]: 1.86 µM (inactive) | GI50 [51]: 2.08 µM (inactive) | GI50 [52]: 3.78 µM (inactive) | GI50 [14]: 1.35 µM | GI50 [15]: 1.96 µM (inactive) | GI50 [16]: 2.38 µM (inactive) | GI50 [17]: 2.1 µM (inactive) | GI50 [18]: 2.46 µM (inactive) | GI50 [19]: 1.71 µM (inactive) | GI50 [20]: 1.32 µM (inactive) | GI50 [22]: 1.4 µM (inactive) | GI50 [23]: 0.433 µM (active) | GI50 [24]: 2.05 µM (inactive) | GI50 [25]: 2.77 µM (inactive) | GI50 [27]: 0.685 µM (active) | GI50 [28]: 4.2 µM (inactive) | GI50 [29]: 2.03 µM (inactive) | GI50 [53]: 3.68 µM (inactive) | GI50 [30]: 1.98 µM (inactive) | GI50 [31]: 1.13 µM (inactive) | GI50 [54]: 1.63 µM (inactive) | GI50 [32]: 2.23 µM (inactive) | GI50 [33]: 4.36 µM (inactive) | GI50 [34]: 2.39 µM (inactive) | GI50 [37]: 20.7 µM (inactive) | GI50 [55]: 2.02 µM (inactive) | GI50 [38]: 0.986 µM (active) | GI50 [39]: 0.579 µM (active) | GI50 [56]: 2.51 µM (inactive) | GI50 [40]: 2.08 µM (inactive) | GI50 [41]: 2.26 µM (inactive) | GI50 [42]: 2.5 µM (inactive) | GI50 [43]: 1.52 µM (inactive) | GI50 [44]: 2.31 µM (inactive) | GI50 [45]: 0.314 µM (active) | GI50 [46]: 1.89 µM (inactive) | GI50 [47]: 1.55 µM (inactive) | GI50 [48]: 1.99 µM (inactive)

O=C1C(Cl)=C(N2CCN(CCOCCO)CC2)C(=O)c2c(O)ccc(O)c21
GI50 [9]: 0.0869 µM (active) | GI50 [10]: 2.1 µM (inactive) | GI50 [11]: 2.65 µM (inactive) | GI50 [12]: 0.458 µM (active) | GI50 [52]: 0.64 µM (active) | GI50 [14]: 0.453 µM | GI50 [15]: 2.38 µM (inactive) | GI50 [18]: 1.75 µM (inactive) | GI50 [28]: 1.77 µM (inactive) | GI50 [29]: 1.66 µM (inactive) | GI50 [33]: 3.28 µM (inactive) | GI50 [35]: 0.422 µM (active) | GI50 [37]: 3.08 µM (inactive) | GI50 [43]: 0.0272 µM (active) | GI50 [46]: 2.77 µM (inactive) | GI50 [47]: 0.104 µM (active)

Source: ChEMBL document CHEMBL1201862, “PubChem BioAssay data set” (2004)
